Source: patent US20090214435A1, “Recombinant vector expressing MDR1 shRNA and thymidine kinase and use thereof” (Kyungpook National University Industry-Academic Cooperation …, priority 2007, published 2009)

Experiments:
MTKG cells [1] = experiment: Clonogenic assay, co-administration of ganciclovir and doxorubicin; format: cell-based, human; conditions: 10 days
Method: In order to confirm effects of co-administration of an anti-viral drug ganciclovir and an anticancer drug (doxorubicin) on cancer cells, clonogenic assay was carried out. For this purpose, first, MTKG cells were inoculated and cultured in a 100 mm plate containing RPMI 1640 medium, and the cells were then washed three times with a fresh medium. The cells were desorbed from the plate using trypsin-EDTA, and 1×10^3 cells were counted and inoculated into a 6-well plate with addition of ganciclovir (0.1 μCi) and doxorubicin at two different concentrations (10 and 25 nM), followed by incubation. 10 days after incubation, the culture medium was eliminated, and the cells were washed three times with a phosphate buffer and stained with a dye (Diff Quick staining kit). Colony formation was confirmed and colony count was made.

HCT/Mock cells [2] = experiment: Clonogenic assay for anticancer drug sensitivity, control cells; format: cell-based, human; conditions: 10 days
Method: (§1) First, MTKG cells and HCT/Mock cells as a control group were inoculated at a cell density of 10^3 cells/well in a 6-well plate containing RPMI 1640 medium, followed by addition of an anticancer drug (doxorubicin or paclitaxel) at different concentrations (0, 1, 5, 10, 50, 100, 500, and 1000 nM) and incubation for 10 days. Thereafter, the culture medium was eliminated, and the cells were washed three times with a phosphate buffer and stained with a dye (Diff Quick staining kit). Colony formation was confirmed and colony count was made.

MTKG cells [3] = experiment: Clonogenic assay for anticancer drug sensitivity, transfected cells; format: cell-based; conditions: Homo sapiens, 240 h, 10 days, read-out: inhibition of cell proliferation
Method: as §1

HCT/Mock cells [4] = experiment: Cell proliferation assay (CellTiter 96 Aqueous One Solution) for ganciclovir sensitivity; format: cell-based, human; conditions: ganciclovir 0.1, 1, 10 μM, 4 days, FIG. 5B
From the text: (§2) Whether increased intracellular accumulation capacity of ganciclovir confirmed in Section 5-1 leads to the enhanced drug sensitivity of MTKG cells to ganciclovir was examined by a cell proliferation assay using CellTiter 96 Aqueous One Solution cell proliferation assay kit (Promega, USA), First, MTKG cells and HCT/Mock cells as a control group were inoculated at a cell density of 10^2 cells/well in a 96-well plate containing RPMI 1640 medium, followed by addition of ganciclovir at different concentrations (0, 0.1, 1, and 10 μM) and incubation for 4 days. Thereafter, 20 μl of detection solution were added to each well. The cells were incubated for 90 min at 37° C. and then measured absorbance at 490 nm using miroplate reader (BioRad, USA). From the experimental results shown in FIG. 5B, it was confirmed that proliferation of HCT-15 and HCT/Mock cells as a control group was not affected by administration of ganciclovir, whereas proliferation of the MTKG cells was affected even at a ganciclovir concentration of 0.1 μM or higher, thus representing increased drug sensitivity of the cell.

HCT-15 cells = experiment: as above; format: cell-based, human; conditions: ganciclovir 0.1, 1, 10 μM, 4 days, FIG. 5B
From the text: as §2

MTKG cells [5] = experiment: as above; format: cell-based, human; conditions: ganciclovir concentration of 0.1 μM or higher, 4 days, FIG. 5B
From the text: as §2

MTKG cells [6] = experiment: Intracellular accumulation of [H3]-ganciclovir; format: cell-based, human; conditions: 0.76 μCi/mL [H3]-ganciclovir, 45 min at 37° C., MTKG cells compared to HCT-15 and HCT/Mock cells, FIG. 5A
Method: A degree of intracellular ganciclovir accumulation by the TK-GFP gene was investigated as follows. MTKG cells constructed in Section 1-3 of Example 1, and HCT-15 and HCT/Mock cells as a control group were cultured in 6-well plates containing RPMI 1640 medium for 48 hours, to which 0.76 μCi/mL of an isotope-labeled ganciclovir ([H^3]-Ganciclovir, Moravek, USA) was then added, followed by incubation at 37° C. for 45 min. Then, the plate was washed three times with a phosphate buffer and a cell lysis buffer (50 mM Tris-HCl, 150 mM NaCl, and 1% SDS) was added thereto to lyse the cells. For each cell lysate sample, an isotope activity was measured using a beta-counter.

MTKG cells [7] = experiment: Intracellular accumulation of [3H]-paclitaxel; format: cell-based, human; conditions: 50 nM [3H]-paclitaxel, 2 hours at 37° C., MTKG cells compared to HCT-15 and HCT/Mock cells, FIG. 4A
Method: A degree of intracellular drug accumulation by MDR1 shRNA was investigated. MTKG cells constructed in Section 1-3 of Example 1, and HCT-15 and HCT/Mock cells as a control group were cultured in 6-well plates containing RPMI 1640 medium for 48 hours, to which 50 nM of an isotope-labeled anticancer drug ([^3H]-paclitaxel, Moravek, USA) was then added, followed by incubation at 37° C. for 2 hours. Then, the plate was washed three times with a phosphate buffer, and a cell lysis buffer (50 mM Tris-HCl, 150 mM NaCl, and 1% SDS) was added thereto to lyse the cells. For each cell lysate sample, an isotope activity was measured using a beta-counter.

P-glycoprotein = experiment: Western blot analysis of P-glycoprotein expression in transfected cells; format: cell-based, human; conditions: MTKG cells vs control cell line, FIG. 2B
Method: In order to investigate whether intracellular incorporation of MDR1 shRNA inhibits expression of P-glycoprotein which is an expression product of the MDR1 gene, Western blot analysis was carried out for proteins isolated from HCT-15, HCT/Mock, and MTKG cells, respectively. The procedure will be briefly described as follows. HCT-15, HCT/Mock, and MTKG cells were lysed in a cell lysis buffer (containing 50 mM Tris-HCl, 150 mM NaCl, 1% Triton X-100, 1 mM CaCl2, 1 mM MgC2 and protease inhibitor cocktail (Roche, USA), pH 7.4). 30 μg of each protein in the cell lysates was subjected to electrophoresis on polyacrylamide gel containing 7% SDS, and the developed protein gel was transferred to a nitrocellulose membrane. Thereafter, anti-P-glycoprotein antibodies (clone C219, Calbiochem, USA) were diluted in a TBS-T solution (50 mM Tris-HCl, pH 7.6, 150 mM NaCl, 0.1% Tween 20) and were allowed to react and bind with a nitrocellulose membrane for more than 16 hours under refrigeration conditions. After the reaction was complete, the membrane was washed three times with a TBS-T solution, followed by binding reaction with horseradish peroxidase (HRP)-conjugated anti-mouse IgG antibodies (Santa Cruz, USA) for 1 hour at room temperature. […]

MDR1 mRNA = experiment: RT-PCR analysis of MDR1 mRNA expression in transfected cells; format: cell-based, human; conditions: MTKG cells vs HCT-15 and HCT/Mock, FIG. 2A
Method: Expression of MDR1 shRNA in MTKG cells of Section 1-3 of Example 1 was examined by RT-PCR For this purpose, total RNA was isolated from HCT-15, HCT/Mock, and MTKG cells, using Trizol reagent (Invitrogen) according to the manufacturer's instructions. Then, cDNA was prepared using 2 μg of the isolated total RNA as a template, and Oligo(dT)15 primer (Bionics, Seoul, Korea) and reverse transcriptase (Promega). PCR amplification for MDR1 mRNA was carried out using the prepared cDNA as a template and a pair of primers (SEQ ID NOS: 12 and 13). PCR was carried out as follows: initial denaturation of template cDNA at 94° C. for 2 min, followed by 30 cycles of denaturation at 94° C. for 30 seconds, annealing at 60° C. for 30 seconds and extension at 72° C. for 1 min.

COc1cccc2c1C(=O)c1c(O)c3c(c(O)c1C2=O)C[C@@](O)(C(=O)CO)C[C@@H]3O[C@H]1C[C@H](N)[C@H](O)[C@H](C)O1 [doxorubicin]
cell survival rate (MTKG cells [1]; 10 nM doxorubicin alone): 78.8±7.8%
cell survival rate (MTKG cells [1]; 25 nM doxorubicin alone): 37.7±3.3%
inhibition of cell proliferation (HCT/Mock cells [2]; doxorubicin concentration of 500 nM or higher, FIG. 4B): ≥ 90%
inhibition at 0.05 µM (MTKG cells [3]; doxorubicin concentration of 50 nM, FIG. 4B): ≥ 90%

Nc1nc(O)c2ncn(COC(CO)CO)c2n1 [ganciclovir]
cell survival rate (MTKG cells [1]; 0.1 μCi ganciclovir alone): 61.1±4.1%
proliferation of cells on administration of ganciclovir (HCT/Mock cells [4]): not affected
proliferation of cells on administration of ganciclovir (HCT-15 cells): not affected
proliferation of cells on administration of ganciclovir (MTKG cells [5]): affected
accumulation of ganciclovir (MTKG cells [6]): higher accumulation

CC(=O)O[C@H]1C(=O)[C@@]2(C)[C@H]([C@H](OC(=O)c3ccccc3)[C@]3(O)C[C@H](OC(=O)[C@H](O)[C@@H](NC(=O)c4ccccc4)c4ccccc4)C(C)=C1C3(C)C)[C@]1(OC(C)=O)CO[C@@H]1C[C@@H]2O [paclitaxel]
inhibition at 0.1 µM (HCT/Mock cells [2]; Homo sapiens, 240 h, paclitaxel concentration of 100 nM, FIG. 4C, read-out: inhibition of cell proliferation): ≥ 70%
accumulation of paclitaxel (MTKG cells [7]): higher accumulation
inhibition at 0.01 µM (MTKG cells [3]; paclitaxel concentration of 10 nM, FIG. 4C): ≥ 70%

B1: MDR1 shRNA: shRNA with sense and antisense sequences for target SEQ ID NO: 6 (5′-GGCCUAAUGCCGAACACAU-3′), CGAA loop, expressed from U6 promoter (nucleic acid)
sense: GATCCCGGCCTAATGCCGAACACATCGAAATGTGTTCGGCATTAGGCCTTTTTTCCAAC
antisense: TCGAGTTGGAAAAAAGGCCTAATGCCGAACACATTTCGATGTGTTCGGCATTAGGCCGG
modifications: the letters are possibly those of the target site
P-glycoprotein expression (P-glycoprotein): inhibition of P-glycoprotein expression
level of MDR1 mRNA (MDR1 mRNA): decreased level of MDR1 mRNA
